Assays:
CKD mice [1] = assay: Chronic kidney disease and vascular calcification mouse model (OsteoSense calcium tracer in aorta); assay type: in vivo; conditions: for vascular calcification (calcium tracer OsteoSense visualization, aorta): daily oral gavage 10 mg/kg for two weeks, vs CKD vehicle, 10 mg/kg
Text: The in vivo study was approved by the Institutional Animal Care and Use Committee (IACUC) at Florida International University under protocol AN20-006 and conformed to current NIH guidelines. 8-week-old wild type C57BL/6J mice (n=38, 19 per biological sex) were fed an adenine-supplemented diet (0.2%, TestDiet, Richmond, Ind.) for 6 weeks to induce severe kidney injury. The mice then received a diet containing 1.8% phosphate (TestDiet, Richmond, Ind.) and 0.2% adenine for an additional two weeks to induce medial calcinosis.
Along with this calcifying diet, a group of mice (n=19) received daily tyrphostin AG1478 (10 mg/kg mouse, Millipore Sigma, T4182) via oral gavage. The remaining mice (n=19) received vehicle treatment (1% w/v, carboxymethylcellulose sodium salt, Sigma, C5678). For non-diseased controls, a third group of mice (n=12, 6 per biological sex) were fed a regular chow diet and received the vehicle for the final two weeks. During the oral gavage, animals were partially anesthetized using isoflurane (1%, Patterson Veterinary, 07-893-1389, in 2 L.min^−1 oxygen flow). All animals received a tail vein injection with the calcium tracer OsteoSense 680EX (80 nmol/kg mouse, PerkinElmer, NEV10020EX) 48 hours prior to euthanization. At study endpoint, mice were anesthetized with isoflurane (1%, in 2 L.min^−1 oxygen flow) followed by retro-orbital bleeding for blood collection. Mice were then immediately euthanized by laceration of the diaphragm before tissue collection. After resection, the aortas were imaged using a near-infrared scanner (LI-COR Odyssey) to visualize the vascular calcification burden. A custom MATLAB script quantified the total area of the calcium tracer, which was normalized to the total scanned aorta area.

CKD mice [2] = assay: Aorta immunofluorescence and subcellular (cytosolic) fractionation in CKD mice; assay type: in vivo, mouse
Procedure: 8-week-old wild type C57BL/6J mice (n=20, female) received the adenine-supplemented diet for 6 weeks to induce CKD, followed by two additional weeks of the diet containing 1.8% phosphate and 0.2% adenine to induce medial calcinosis. Mice were split into two groups (10 per group). The first group received daily tyrphostin AG1478 (10 mg/kg mouse), while the other group received vehicle (1% w/v, carboxymethylcellulose sodium salt). At study endpoint, the animals were euthanized, and the aortas were resected.
A subcellular protein fractionation kit for tissue (Thermofisher, 87790) was used to isolate cellular cytosolic fraction from the resected aortas, using the manufacturer's protocol. Briefly, the tissues were minced and homogenized using a grinder. The samples were then incubated in a cytoplasmic extraction buffer for 10 min at 4° C., followed by centrifugation at 1000×g for 5 min. The supernatants yielded the cytosolic fraction. To obtain sufficient protein for analyses, two aortas were pooled per data point.
VSMCs, osteoblasts, isolated EVs (either from cells or mouse aortas), and matrix vesicles (from osteoblasts) were lysed in RIPA lysis and extraction buffer supplemented with protease inhibitor. After adding Laemmli SDS-sample buffer (1:4 v/v, Boston BioProducts, BP-110R) to each lysate, the samples were denatured at 100° C. for 10 min, loaded into 7.5-12% 1-mm SDS-PAGE gel (15 to 20 μg protein per lane), and run at 170 V. The proteins were then transferred to Trans-Blot turbo nitrocellulose membranes (BIO-RAD, 1704158) at 25 V for 7 min.
To quantify the total protein, the membranes were stained using 2% w/v Ponceau stain (Alfa Aesar, AAJ6074409) for 20 min, followed by one wash with 5% acetic acid and milliQ water for 5 min. After imaging, the intensity of each lane was measured in ImageJ for total protein normalization. Membranes were blocked with 5% w/v bovine serum albumin (HyClone, SH30574.01) in TBS-Tween (1×) for 1 hour. […] The protein bands were visualized with Odyssey CLx scanner (Li-Cor), and quantified using Image Studio Lite software (Li-Cor). […]

CKD mice [3] = assay: EVs isolated from mouse aortas: CAV1 immunoblot and TNAP activity; assay type: in vivo; conditions: CKD mice treated vs CKD
Procedure: Immediately after scanning, the tissue was incubated in a digestive solution of sucrose (0.25 M, Sigma, S7903), NaCl (0.12 M, Fisher Chemical, BP358), KCl (0.01 M, Fisher Chemical, P217), Tris hydrochloride (0.02 M, Fisher Chemical, BP153), and collagenase (600 U/mL, Worthington Biochemical, LS004174) for 2 hours at 37° C. The solution was then centrifuged at 1,000×g for 15 min to remove cell debris and at 33,000×g for 30 min to remove microvesicles. Finally, the supernatants were ultracentrifuged (Beckman Coulter, Optima MAX-TL) at 100,000×g for 1 hour to isolate the EVs of interest. The pellet was suspended in RIPA lysis and extraction buffer (G Biosciences, 786-489) supplemented with pierce protease inhibitor (Thermo Scientific, A32963). To yield sufficient protein concentration for analysis, EVs isolated from 2 to 3 aortas were pooled.
For EV TNAP activity measurement, after ultracentrifugation at 100,000×g for 1 hour, the pellets were re-suspended in 120 μL buffer assay. […]
To quantify the total protein, the membranes were stained using 2% w/v Ponceau stain (Alfa Aesar, AAJ6074409) for 20 min, followed by one wash with 5% acetic acid and milliQ water for 5 min. After imaging, the intensity of each lane was measured in ImageJ for total protein normalization. […] The protein bands were visualized with Odyssey CLx scanner (Li-Cor), and quantified using Image Studio Lite software (Li-Cor).

[4] = treated CKD animals compared to CKD group

COc1cc2ncnc(Nc3cccc(Cl)c3)c2cc1OC [AG1478, tyrphostin AG1478]
Quantification of the OsteoSense intensity (vascular calcification) (CKD mice [1]; CKD mice, 10 mg/kg daily, two weeks, vs CKD, p≤0.001): significant reduction | vascular calcification (calcium tracer OsteoSense visualization, aorta) (CKD mice [1]; CKD mice): reduced calcium burden | vascular calcification (calcium tracer OsteoSense visualization, aorta) (CKD mice [1]; CKD mice, listed as EGFR inhibitor): dramatically reduced | survival rate (CKD mice [1]; CKD mouse model): 100% | CAV1, EGFR, and TNAP immunofluorescence in the aorta (CKD mice [2]; qualitative, CKD mice treated, compared to chow-fed controls): elevation of all three proteins | cytosolic CAV1 protein in aorta (CKD mice [2]; [4]): higher | cytosolic TNAP protein in aorta (CKD mice [2]; [4]): higher | CAV1 protein on EVs isolated from aortas (CKD mice [3]; p<0.0001): significantly lower | TNAP activity of EVs isolated from aortas (CKD mice [3]; p=0.003): significantly lower

— patent publication US11612601B1, “Targeting epidermal growth factor to treat vascular calcification” (THE FLORIDA INTERNATIONAL UNIVERSITY BOARD OF TRUSTEES, priority 2022, dated 2023)
